Test results as given in ChEMBL document CHEMBL1201862, “PubChem BioAssay data set” (2004).
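How tested: cells in 96-well plates exposed to compound for 48 hours at five concentrations. GI50 is the concentration that inhibits growth by half.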 Active and inactive are the calls of the source. Rule as the data show it: active = GI50 up to about 1.1 µM and inactive = higher.

Assays:
Assay in all cases: NCI anticancer screen, dose series, 48 h
786-0 = test system: 786-0
A498 = test system: A498
ACHN = test system: ACHN
BT-549 = test system: BT-549
HOP-62 = test system: HOP-62
Hs-578T = test system: Hs-578T
M14 = test system: M14
Malme-3M = test system: Malme-3M
NCI-H23 = test system: NCI-H23
OVCAR-3 = test system: OVCAR-3
OVCAR-4 = test system: OVCAR-4
PC-3 = test system: PC-3
SK-MEL-2 = test system: SK-MEL-2
SK-MEL-5 = test system: SK-MEL-5
SK-OV-3 = test system: SK-OV-3
SNB-19 = test system: SNB-19
T47D = test system: T47D
UO-31 = test system: UO-31
SW-620 = test system: SW-620
NCI-H460 = test system: NCI-H460

Measured: GI50

O=C1CC2(CCN(CC3COc4ccccc4O3)CC2)C(=O)N1N1CCCCCC1 (stereo not given)
inactive: 786-0 > 100 µM | A498 > 100 µM | ACHN 73.5 µM | BT-549 61.7 µM | HOP-62 > 100 µM | Hs-578T 44.1 µM | M14 69.3 µM | Malme-3M 94.4 µM | NCI-H23 16.9 µM | OVCAR-3 > 100 µM | OVCAR-4 33.6 µM | PC-3 27.5 µM | SK-MEL-2 > 100 µM | SK-MEL-5 22.7 µM | SK-OV-3 > 100 µM | SNB-19 > 100 µM | T47D 33.7 µM | UO-31 > 100 µM

CCOC(=O)C1=NNC(C(=O)c2ccccc2)C1c1ccccc1 (stereo not given)
inactive: 786-0 2.11 µM | A498 25.1 µM | ACHN 1.85 µM | BT-549 2.08 µM | HOP-62 12.2 µM | Hs-578T 4.12 µM | M14 1.9 µM | Malme-3M 2.19 µM | NCI-H23 2.42 µM | OVCAR-3 3.42 µM | OVCAR-4 7.4 µM | PC-3 10.4 µM | SK-MEL-2 16.2 µM | SK-MEL-5 1.8 µM | SK-OV-3 18.8 µM | SNB-19 14.4 µM | SW-620 1.75 µM | T47D 4.24 µM | UO-31 2.01 µM

COc1ccc2nc3n(c2c1)CCc1cc(OC)c(OC)cc1-3
inactive: 786-0 49.8 µM | A498 68.7 µM | ACHN 81.5 µM | BT-549 30 µM | HOP-62 58.2 µM | Hs-578T 85.7 µM | M14 39.9 µM | Malme-3M 91 µM | NCI-H23 40.1 µM | NCI-H460 50.5 µM | OVCAR-3 46.7 µM | OVCAR-4 34.8 µM | PC-3 39.4 µM | SK-MEL-2 > 100 µM | SK-MEL-5 18.7 µM | SK-OV-3 > 100 µM | SNB-19 99.5 µM | SW-620 71.3 µM | T47D 34.6 µM

COC(=O)[C@@]1(Cc2ccc(O)cc2)C[C@@H]2Cc3ccccc3N2N1
inactive: 786-0 > 100 µM | A498 27.9 µM | ACHN > 100 µM | BT-549 45 µM | HOP-62 > 100 µM | Hs-578T 68.4 µM | M14 38.8 µM | Malme-3M 49 µM | NCI-H23 56.9 µM | OVCAR-3 > 100 µM | OVCAR-4 > 100 µM | PC-3 34.5 µM | SK-MEL-2 25.4 µM | SK-MEL-5 34.5 µM | SK-OV-3 > 100 µM | SNB-19 > 100 µM | SW-620 > 100 µM | T47D 23.5 µM | UO-31 75.7 µM
